Calls of active or inactive are those of the source. Where only a bound is given, the exact number is not on record here.

Series [1] relates to MIA PaCa-2. Briefly: Antiproliferative activity against human MIA PaCa-2 cells assessed as inhibition of cell proliferation at 1 uM incubated for 72 hrs by SRB assay relative to control. Type of series: functional.
Series [2] has as its system PaTu 8988t. The series is described as follows: Antiproliferative activity against human PaTu 8988t cells assessed as inhibition of cell proliferation at 1 uM incubated for 72 hrs by SRB assay relative to control. Type of series: functional. A general note: The SRB assay estimates cell density from bound dye.
In series [3] the test system is CFPAC-1. Briefly: Antiproliferative activity against human CFPAC-1 cells assessed as inhibition of cell proliferation at 1 uM incubated for 72 hrs by SRB assay relative to control. Type of series: functional.
For series [4], the system named is Panc02. The series is described as follows: Antiproliferative activity against mouse Panc02 cells assessed as inhibition of cell proliferation at 1 uM incubated for 72 hrs by SRB assay relative to control. Format: functional.
Series [5] is described as follows: Antiproliferative activity against human L02 cells assessed as inhibition of cell proliferation at 1 uM incubated for 72 hrs by SRB assay relative to control. Format: toxicity, cell-based.
Series [6] relates to MIA PaCa-2. The series is described as follows: Antiproliferative activity against human MIA PaCa-2 cells assessed as inhibition of cell proliferation incubated for 72 hrs by SRB assay. Type of series: functional, cell-based. The note with it: MIA PaCa-2, 72 h.
Series [7] concerns CFPAC-1. Briefly: Antiproliferative activity against human CFPAC-1 cells assessed as inhibition of cell proliferation incubated for 72 hrs by SRB assay. Format: functional, cell-based. As to conditions: CFPAC-1, 72 h.
In series [8] the test system is Panc02. Briefly: Antiproliferative activity against mouse Panc02 cells assessed as inhibition of cell proliferation incubated for 72 hrs by SRB assay. Type of series: functional, cell-based. The note with it: Panc02, 72 h.
The nature of series [9]: Antiproliferative activity against human L02 cells assessed as inhibition of cell proliferation incubated for 72 hrs by SRB assay. Format: toxicity, cell-based.
Series [10] deals with PaTu 8988t. The series is described as follows: Antiproliferative activity against human PaTu 8988t cells assessed as inhibition of cell proliferation incubated for 72 hrs by SRB assay. Type of series: functional, cell-based.
The nature of series [11]: Aqueous solubility of the compound at 1 to 2 mg measured after 24 hrs by HPLC-MS analysis. Type of series: physicochemical. As to conditions: aqueous (not further specified), dose 1-2 mg.
Series [12] is described as follows: Metabolic stability in mouse liver microsome assessed as hepatic clearance. Type of series: ADME. As to conditions: microsomes. For orientation: Microsomes from liver hold many membrane-bound enzymes, among them those of drug oxidation.
The nature of series [13]: Metabolic stability in mouse liver microsome assessed as half life. Format: ADME. The note with it: liver microsomes.
Series [14] in a line: Metabolic stability in human liver microsome assessed as half life. Type of series: ADME. The note with it: liver microsomes.
Series [15] is described as follows: Metabolic stability in human liver microsome assessed as hepatic clearance. Format: ADME. The note with it: microsomes.
Series [16] is described as follows: Metabolic stability in mouse liver microsome assessed as intrinsic clearance. Type of series: ADME. The note with it: liver microsomes, read-out: CLH.
Series [17] is described as follows: Metabolic stability in human liver microsome assessed as intrinsic clearance. Format: ADME. The note with it: liver microsomes, read-out: CLH.
Series [18] deals with CFPAC-1. Briefly: Effect on beclin-1 level in human CFPAC-1 cells at 10 to 1000 nM incubated for 24 hrs by Western blot analysis. Type of series: functional, cell-based. The note with it: dose 10-1000 nM. On the technique in general: Immunoblotting shows a protein as a band on a membrane.
Series [19] has as its system CFPAC-1. The series is described as follows: Inhibition of autophagy at later stage in human CFPAC-1 cells assessed as increase in LC3-II/LC3-I ratio at 10 to 1000 nM incubated for 24 hrs by Western blot analysis. Format: functional, cell-based. As to conditions: dose 10-1000 nM.
For series [20], the system named is CFPAC-1. Briefly: Inhibition of autophagy at later stage in human CFPAC-1 cells assessed as increase in LC3-II/LC3-I ratio at 1 uM incubated for 24 hrs in presence of chloroquine by Western blot analysis. Format: functional, cell-based.
In series [21] the test system is CFPAC-1. The series is described as follows: Downregulation of cyclin D1 expression level in human CFPAC-1 cells incubated for 24 hrs by Western blot analysis. Type of series: functional, cell-based. The note with it: dose 10-1000 nM.
Series [22] deals with CFPAC-1. Briefly: Downregulation of CDK4 expression level in human CFPAC-1 cells incubated for 24 hrs by Western blot analysis. Type of series: functional, cell-based. As to conditions: dose 10-1000 nM.

For orientation: inhibition means the change of the read-out against control, counted positive when it falls. As for `COc1cc2c(NC(=O)[C@@H](N)COC(C)=O)c3c(c(-c4ccc5c(c4)OCO5)c2cc1OC)C(=O)OC3`, the inhibition at 1 µM in the series with MIA PaCa-2 [1] came to 3.38%; in the series with PaTu 8988t [2], 2.63%; with CFPAC-1 [3], 11.6%; in the series with Panc02 [4], 8.86%. Also, the inhibition at 72 h, 1 µM in series [5] was -0.71%.

For `COc1cc2c(OCCCc3cn([C@H]4O[C@@H](C)[C@H](O)[C@@H](O)[C@H]4O)nn3)c3c(c(-c4ccc5c(c4)OCO5)c2cc1OC)C(=O)OC3`, the inhibition at 1 µM in the series with MIA PaCa-2 [1] amounted to 46.5%; in the series with PaTu 8988t [2], 8.08%; in the series with CFPAC-1 [3], 45.9%; in the series on Panc02 [4] it was 16.6%. Further, the inhibition at 72 h, 1 µM in series [5] is -0.18%.

`COc1cc2c(OCc3cn([C@H]4O[C@@H](C)[C@H](O)[C@@H](O)[C@H]4O)nn3)c3c(c(-c4ccc5c(c4)OCO5)c2cc1OC)C(=O)OC3`: the inhibition at 1 µM is 0.95% in the series with MIA PaCa-2 [1], -2.09% with PaTu 8988t [2], 14.9% with CFPAC-1 [3] and 8.85% in the series on Panc02 [4]. For the same compound, the inhibition at 72 h, 1 µM in series [5] was -1.75%.

Take `COc1cc2c(OCCOCc3cn([C@H]4O[C@@H](C)[C@H](O)[C@@H](O)[C@H]4O)nn3)c3c(c(-c4ccc5c(c4)OCO5)c2cc1OC)C(=O)OC3`: the inhibition at 1 µM with MIA PaCa-2 [1] came out at 0.16%; in the series with PaTu 8988t [2], 0.9%; in the series on CFPAC-1 [3], 53.9%; in the series with Panc02 [4] it was 46%. For the same compound, the inhibition at 72 h, 1 µM in [5] came out at 1.57%.

As a reminder, the IC50 is the concentration at which inhibition is half-maximal. Regarding `COc1cc2c(OCCOCc3cn([C@H]4O[C@@H](C)[C@H](OC(C)=O)[C@@H](OC(C)=O)[C@H]4OC(C)=O)nn3)c3c(c(-c4ccc5c(c4)OCO5)c2cc1OC)C(=O)OC3`, the IC50 was 756 nM in the series with MIA PaCa-2 [6], 50 nM with CFPAC-1 [7], 216 nM in the series with Panc02 [8] and 766 nM in the series with PaTu 8988t [10]. The inhibition at 1 µM with MIA PaCa-2 [1] was found to be 72.4%; with PaTu 8988t [2], 86.5%; with CFPAC-1 [3], 66.7%; in the series on Panc02 [4], 53.4%. In addition, in series [5], the inhibition at 72 h, 1 µM was 16.4%. The IC50 at 72 h in series [9] amounted to 1040 nM.

The solubility is the dissolved amount per volume that the medium holds. A low value points to little dissolved substance. The compound `COc1cc2c(N)c3c(c(-c4ccc5c(c4)OCO5)c2cc1OC)C(=O)OC3.Cl` had a solubility at 24 h in series [11] of 0.055 µg/mL.

Turning to `COc1cc2c(NS(N)(=O)=O)c3c(c(-c4ccc5c(c4)OCO5)c2cc1OC)C(=O)OC3`, the inhibition at 1 µM came to 29% in the series on MIA PaCa-2 [1], 34.1% in the series on PaTu 8988t [2], 72.4% with CFPAC-1 [3] and 80.7% with Panc02 [4]. In addition, the inhibition at 72 h, 1 µM in series [5] was 14.9%.

The half-life is the time needed for the level to fall by half in the phase considered. Regarding `COc1cc2c(OCCCc3cn([C@H]4O[C@@H](C)[C@H](OC(C)=O)[C@@H](OC(C)=O)[C@H]4OC(C)=O)nn3)c3c(c(-c4ccc5c(c4)OCO5)c2cc1OC)C(=O)OC3`, the IC50 in the series with MIA PaCa-2 [6] is 40 nM; in the series on CFPAC-1 [7], 7 nM; in the series with Panc02 [8], 12 nM; in the series with PaTu 8988t [10] it was 24 nM. Moreover, the CLH in series [12] is over 83.2 mL/min/kg; in series [15], over 19.4 mL/min/kg. Also, the inhibition at 1 µM was 93.6% in the series on MIA PaCa-2 [1], 93.9% with PaTu 8988t [2], 75.7% with CFPAC-1 [3] and 86.7% in the series with Panc02 [4]. In series [5], the inhibition at 72 h, 1 µM was determined as 38.3%. Further, the IC50 at 72 h in series [9] turned out to be 494 nM. In addition, the half-life in series [13] and in [14] was under 5 min throughout. In addition, the microsomal CLint in series [16] and in series [17] was over 277 µL/min/mg throughout.

As for `COc1cc2c(N)c3c(c(-c4ccc5c(c4)OCO5)c2cc1OC)C(=O)OC3`, in the series with CFPAC-1 [18], the outcome was inactive. The inhibition result in the series with CFPAC-1 [19] and in the series on CFPAC-1 [20] was “Active” throughout. The Activity result in the series with CFPAC-1 [21] and in the series with CFPAC-1 [22] was “Dose-Dependent Effect” in each case.

For the compound `COc1cc2c(OCc3cn([C@H]4O[C@@H](C)[C@H](OC(C)=O)[C@@H](OC(C)=O)[C@H]4OC(C)=O)nn3)c3c(c(-c4ccc5c(c4)OCO5)c2cc1OC)C(=O)OC3`, the IC50 with MIA PaCa-2 [6] is 248 nM; in the series with CFPAC-1 [7], 97 nM; in the series with Panc02 [8], 270 nM; in the series with PaTu 8988t [10] it was 163 nM. For the same compound, the inhibition at 1 µM with MIA PaCa-2 [1] turned out to be 83.7%; in the series on PaTu 8988t [2], 72.5%; with CFPAC-1 [3], 65.9%; in the series on Panc02 [4], 76.3%. Besides, in series [5], the inhibition at 72 h, 1 µM came to 21.6%. The concentration for half-maximal inhibition (IC50) at 72 h in [9] worked out at 1230 nM.

With `COc1cc2c(NC(=O)OC(C)(C)C)c3c(c(-c4ccc5c(c4)OCO5)c2cc1OC)C(=O)OC3`, the IC50 in the series on MIA PaCa-2 [6] is 161 nM; in the series on CFPAC-1 [7], 37 nM; with Panc02 [8], 261 nM; in the series with PaTu 8988t [10], 88 nM. Also, the inhibition at 1 µM was found to be 52.5% in the series on MIA PaCa-2 [1], 72% in the series on PaTu 8988t [2], 70.5% in the series on CFPAC-1 [3] and 78.1% in the series on Panc02 [4]. In [5], the inhibition at 72 h, 1 µM was 9.56%. The IC50 at 72 h in [9] stood at 5120 nM.

Consider `COC(=O)CNc1c2c(c(-c3ccc4c(c3)OCO4)c3cc(OC)c(OC)cc13)C(=O)OC2`, for which the inhibition at 1 µM amounted to 10.2% in the series with MIA PaCa-2 [1], 85.2% with PaTu 8988t [2], 48.4% in the series on CFPAC-1 [3] and 42% in the series on Panc02 [4]. Moreover, the inhibition at 72 h, 1 µM in series [5] is 10.8%.

With `COc1cc2c(NC(=O)[C@H](C)N)c3c(c(-c4ccc5c(c4)OCO5)c2cc1OC)C(=O)OC3`, the inhibition at 1 µM was 0.64% in the series on MIA PaCa-2 [1], -4.32% with PaTu 8988t [2], 42.7% in the series with CFPAC-1 [3] and 25.3% in the series on Panc02 [4]. In series [5], the inhibition at 72 h, 1 µM was 1.54%.

Consider `CNc1c2c(c(-c3ccc4c(c3)OCO4)c3cc(OC)c(OC)cc13)C(=O)OC2`, for which the inhibition at 1 µM came to 92.3% in the series on MIA PaCa-2 [1], 92% in the series with PaTu 8988t [2], 82.1% in the series with CFPAC-1 [3] and 91.4% in the series with Panc02 [4]. Further, the inhibition at 72 h, 1 µM in [5] is 35.5%.

These data come from ChEMBL document CHEMBL5352426, “Synthesis and anti-tumor activity of nitrogen-containing derivatives of the natural product diphyllin” (Eur J Med Chem, 2022).
